“Also recorded” adds a separate entry of the source.
Key:
[1] = test system: human skin fibroblasts; experiment: High-throughput cell migration assay (Oris Pro Cell Migration Assay plate) / standardized viability; assay type: cell-based; conditions: Table 1; HTS of FDA Drug Library
From the text: Mouse MSC carrying Npas2-LacZ reporter gene, as described by Hassan N, et al., PLoS One. 2017; 12(8):e0183359, which is incorporated by reference herein in its entirety, was immortalized using SV40 in order to accommodate a large-scale HTS. […] This cell system was used to screen FDA Approved Drug Library (1120 compounds). The same library was also screened for cell viability by Calcein AM Hoechst 33342 staining Cell migration assays using the Oris™ Pro Cell Migration Assay plate, as described by Joy M E et al., PloS one. 2014; 9(2):e88350, which is incorporated by reference herein in its entirety, was used for a high-throughput migration assay using human skin fibroblasts
The combined Z score was used to identify hit compounds (Table 1).

[2] = test system: osteocalcin (Ocn), osteopontin (Opn), Bmal1 expression; experiment: Real time RT-PCR of osteogenic and clock genes in BMSC (MSC); assay type: cell-based, mouse
From the text: FIGS. 7A-7B show the effect of Reserpine on bone marrow stromal cells osteogenic differentiation. […] Bars: Tukey analysis with p<0.05. […] The expression values were normalized with day 0 RNA.
FIGS. 11A-11D(b) show results of in vitro biological assays of Npas2 suppressing compound Dwn1 (Reserpine).
Reserpine was selected and its effect on bone marrow stromal cells (BMSC) was characterized for osteogenic differentiation.
The small molecule compound that scored the best combined z score in Example 2, Dwn1 (Reserpine) was selected for in vitro biological assays. […] BMP-2 has been used as a gold standard for accelerated osteogenic differentiation of MSC (48, 49). […] The expression of core clock gene Bmal1 was not affected by Dwn1 (FIG. 11C). Dwn1 increased in vitro mineralization of Npas2+/− MSC, but not of Npas2−/− MSC (FIG. 11D), implying that the effect of Dwn1 (Reserpine) was facilitated primarily by Npas2 suppression.

[3] = test system: skin split wound; experiment: Skin split (linear) wound/scar model with suture; assay type: in vivo, mouse; conditions: Dwn1 in 10% DMSO with suture vs suture only and suture plus vehicle
From the text: To test in vivo wound healing using Dwn1, a 1.5 by 10 millimeter skin split model was created with a suture in the middle and three groups were designed. This model is similar to a clinical situation of a skin wound. When the skin was sutured only, visible wound healing was not effective. A suture and vehicle control with 10% DMSO, in the clinical observation, wound healing was visibly better than suture only. It is hypothesized that the moisture of vehicle may improve wound healing.
Masson trichrome staining was used to stain collagen deposition blue. Thick blue collagen deposition was found not only in granulation tissue but also in the peripheral wound. The histological staining for the vehicle control with 10% DMSO, was similar to control. Thick collagen deposition was observed.
Vertical wounds (10×1.5 mm) were made on both left and right sides of the back of a mouse with a double-bladed scalpel. One ligation was performed at the center of the wound with 5-0 nylon suture. (FIG. 33A) Visual Analogue Scale (VAS) was scored everyday postoperatively until postoperative day 7 using gross images of the wounds/scars (FIG. 33A), and postoperative gross images of the wounds/scars were measured with a ruler. […] (FIG. 33D) Scar Index was evaluated using HE stained slices. (FIG. 33E) The % area of fibrous tissue was evaluated using MT stained slices. […]

[4] = test system: murine dermal fibroblasts; experiment: Collagen synthesis by picrosirius red staining; assay type: cell-based, mouse; conditions: day 7; 1 μM or 10 μM; vs control and 50 μg AA
Protocol: The effects of two different concentrations of Dwn1 (1 μM or 10 μM) on collagen synthesis in murine dermal fibroblast in vitro were examined Murine dermal fibroblasts were seeded into 24-well plates and cultured at 80%-90% confluency in medium supplemented with ascorbic acid (50 μg/mL) for 1, 3, and 7 days. The cells were then fixed with 10% neutral buffered formalin and stained with Picrosirius red (PolyScience, Niles, Ill.) for visualizing the collagen. AA: 1-ascorbic acid. OD: optical density. CTRL: cell treated with control medium without AA. […] (FIG. 35A) The absorption value was read in a spectrophotometer at 550 nm with a plate reader ([…] H1 plate reader) and compared by one-way ANOVA with the post hoc Holm test.

COC(=O)[C@H]1[C@H]2C[C@@H]3c4[nH]c5cc(OC)ccc5c4CCN3C[C@H]2C[C@@H](OC(=O)c2cc(OC)c(OC)c(OC)c2)[C@@H]1OC [Reserpine]
Migration (standardized viability) Z Score [1]: 4.19 | Expression of core clock gene Bmal1 ([2]; MSC, listed as Dwn1): did not affect; also recorded: not affected | Expression of osteocalcin (Ocn) ([2]; day 21): significantly increased | Expression of osteopontin (Opn) ([2]; day 21): mildly affected | Expression of osteocalcin (Ocn) ([2]; day 21, listed as Dwn1): increased as early as D21; also recorded: accelerated expression | Collagen deposition (Masson trichrome staining) [3]: decreased excessive collage deposition; also recorded: very small area of collagen deposition | Split wound healing / scarring [3]: improved split wound healing with minimal scarring; also recorded: best wound healing | Picrosirius red staining (collagen fiber formation and accumulation) [4]: increase of a positive reaction

Source: US20230013402A1, “REGENERATING FUNCTIONS AND PHENOTYPES OF CONNECTIVE TISSUE THROUGH NPAS2 SUPPRESSION” (The Regents of the University of California, priority 2019, published 2023)
